According to the NIST ThermoML archive (doi:10.1021/je900482x):
± gives the expanded uncertainty stated by the source.

Assay: isobaric coefficient of expansion
Details: 278.15 K; 5000 kPa; Liquid; Microcalorimeter

| Structure (SMILES) | isobaric coefficient of expansion |
| --- | --- |
| CCn1cc[n+](C)c1.F[B-](F)(F)F [1-ethyl-3-methylimidazolium tetrafluoroborate] | 0.000613 ± 1.5e-05 1/K |
| CCCCCC[n+]1ccn(C)c1.O=S(=O)([N-]S(=O)(=O)C(F)(F)F)C(F)(F)F | 0.000674 ± 1.7e-05 1/K |
| CCCCCCCC[n+]1ccn(C)c1.F[B-](F)(F)F [1-methyl-3-octylimidazolium tetrafluoroborate] | 0.000621 ± 1.2e-05 1/K |
| CCCC[n+]1cccc(C)c1.F[B-](F)(F)F [1-butyl-3-methylpyridinium tetrafluoroborate] | 0.000607 ± 1.5e-05 1/K |
| CCCCCCn1cc[n+](C)c1.F[B-](F)(F)F [1-hexyl-3-methylimidazolium tetrafluoroborate] | 0.000621 ± 1.5e-05 1/K |
| CCn1cc[n+](C)c1.O=S(=O)([N-]S(=O)(=O)C(F)(F)F)C(F)(F)F | 0.00067 ± 1.6e-05 1/K |

Same assay, conditions: 278.15 K; 10000 kPa; Liquid; Microcalorimeter

| Structure (SMILES) | isobaric coefficient of expansion |
| --- | --- |
| CCn1cc[n+](C)c1.F[B-](F)(F)F [1-ethyl-3-methylimidazolium tetrafluoroborate] | 0.000605 ± 1.5e-05 1/K |
| CCCCCC[n+]1ccn(C)c1.O=S(=O)([N-]S(=O)(=O)C(F)(F)F)C(F)(F)F | 0.000662 ± 1.6e-05 1/K |
| CCCCCCCC[n+]1ccn(C)c1.F[B-](F)(F)F [1-methyl-3-octylimidazolium tetrafluoroborate] | 0.000613 ± 1.2e-05 1/K |
| CCCC[n+]1cccc(C)c1.F[B-](F)(F)F [1-butyl-3-methylpyridinium tetrafluoroborate] | 0.000601 ± 1.5e-05 1/K |
| CCCCCCn1cc[n+](C)c1.F[B-](F)(F)F [1-hexyl-3-methylimidazolium tetrafluoroborate] | 0.000613 ± 1.5e-05 1/K |
| CCn1cc[n+](C)c1.O=S(=O)([N-]S(=O)(=O)C(F)(F)F)C(F)(F)F | 0.000659 ± 1.6e-05 1/K |

Same assay, conditions: 278.15 K; 15000 kPa; Liquid; Microcalorimeter

| Structure (SMILES) | isobaric coefficient of expansion |
| --- | --- |
| CCn1cc[n+](C)c1.F[B-](F)(F)F [1-ethyl-3-methylimidazolium tetrafluoroborate] | 0.000596 ± 1.5e-05 1/K |
| CCCCCC[n+]1ccn(C)c1.O=S(=O)([N-]S(=O)(=O)C(F)(F)F)C(F)(F)F | 0.000654 ± 1.6e-05 1/K |
| CCCCCCCC[n+]1ccn(C)c1.F[B-](F)(F)F [1-methyl-3-octylimidazolium tetrafluoroborate] | 0.000605 ± 1.2e-05 1/K |
| CCCC[n+]1cccc(C)c1.F[B-](F)(F)F [1-butyl-3-methylpyridinium tetrafluoroborate] | 0.000596 ± 1.5e-05 1/K |
| CCCCCCn1cc[n+](C)c1.F[B-](F)(F)F [1-hexyl-3-methylimidazolium tetrafluoroborate] | 0.000605 ± 1.5e-05 1/K |
| CCn1cc[n+](C)c1.O=S(=O)([N-]S(=O)(=O)C(F)(F)F)C(F)(F)F | 0.000651 ± 1.6e-05 1/K |

Same assay, conditions: 278.15 K; 20000 kPa; Liquid; Microcalorimeter

| Structure (SMILES) | isobaric coefficient of expansion |
| --- | --- |
| CCn1cc[n+](C)c1.F[B-](F)(F)F [1-ethyl-3-methylimidazolium tetrafluoroborate] | 0.000591 ± 1.4e-05 1/K |
| CCCCCC[n+]1ccn(C)c1.O=S(=O)([N-]S(=O)(=O)C(F)(F)F)C(F)(F)F | 0.000641 ± 1.6e-05 1/K |
| CCCCCCCC[n+]1ccn(C)c1.F[B-](F)(F)F [1-methyl-3-octylimidazolium tetrafluoroborate] | 0.000598 ± 1.2e-05 1/K |
| CCCC[n+]1cccc(C)c1.F[B-](F)(F)F [1-butyl-3-methylpyridinium tetrafluoroborate] | 0.000591 ± 1.4e-05 1/K |
| CCCCCCn1cc[n+](C)c1.F[B-](F)(F)F [1-hexyl-3-methylimidazolium tetrafluoroborate] | 0.000598 ± 1.5e-05 1/K |
| CCn1cc[n+](C)c1.O=S(=O)([N-]S(=O)(=O)C(F)(F)F)C(F)(F)F | 0.000645 ± 1.6e-05 1/K |

Same assay, conditions: 278.15 K; 25000 kPa; Liquid; Microcalorimeter

| Structure (SMILES) | isobaric coefficient of expansion |
| --- | --- |
| CCn1cc[n+](C)c1.F[B-](F)(F)F [1-ethyl-3-methylimidazolium tetrafluoroborate] | 0.000585 ± 1.4e-05 1/K |
| CCCCCC[n+]1ccn(C)c1.O=S(=O)([N-]S(=O)(=O)C(F)(F)F)C(F)(F)F | 0.000635 ± 1.6e-05 1/K |
| CCCCCCCC[n+]1ccn(C)c1.F[B-](F)(F)F [1-methyl-3-octylimidazolium tetrafluoroborate] | 0.00059 ± 1.2e-05 1/K |
| CCCC[n+]1cccc(C)c1.F[B-](F)(F)F [1-butyl-3-methylpyridinium tetrafluoroborate] | 0.000584 ± 1.4e-05 1/K |
| CCCCCCn1cc[n+](C)c1.F[B-](F)(F)F [1-hexyl-3-methylimidazolium tetrafluoroborate] | 0.00059 ± 1.4e-05 1/K |
| CCn1cc[n+](C)c1.O=S(=O)([N-]S(=O)(=O)C(F)(F)F)C(F)(F)F | 0.000634 ± 1.6e-05 1/K |

Same assay, conditions: 278.15 K; 30000 kPa; Liquid; Microcalorimeter

| Structure (SMILES) | isobaric coefficient of expansion |
| --- | --- |
| CCn1cc[n+](C)c1.F[B-](F)(F)F [1-ethyl-3-methylimidazolium tetrafluoroborate] | 0.00058 ± 1.4e-05 1/K |
| CCCCCC[n+]1ccn(C)c1.O=S(=O)([N-]S(=O)(=O)C(F)(F)F)C(F)(F)F | 0.000628 ± 1.5e-05 1/K |
| CCCCCCCC[n+]1ccn(C)c1.F[B-](F)(F)F [1-methyl-3-octylimidazolium tetrafluoroborate] | 0.000584 ± 1.2e-05 1/K |
| CCCC[n+]1cccc(C)c1.F[B-](F)(F)F [1-butyl-3-methylpyridinium tetrafluoroborate] | 0.000581 ± 1.4e-05 1/K |
| CCCCCCn1cc[n+](C)c1.F[B-](F)(F)F [1-hexyl-3-methylimidazolium tetrafluoroborate] | 0.000584 ± 1.4e-05 1/K |
| CCn1cc[n+](C)c1.O=S(=O)([N-]S(=O)(=O)C(F)(F)F)C(F)(F)F | 0.000628 ± 1.5e-05 1/K |

Same assay, conditions: 278.15 K; 35000 kPa; Liquid; Microcalorimeter

| Structure (SMILES) | isobaric coefficient of expansion |
| --- | --- |
| CCn1cc[n+](C)c1.F[B-](F)(F)F [1-ethyl-3-methylimidazolium tetrafluoroborate] | 0.000574 ± 1.4e-05 1/K |
| CCCCCC[n+]1ccn(C)c1.O=S(=O)([N-]S(=O)(=O)C(F)(F)F)C(F)(F)F | 0.000619 ± 1.5e-05 1/K |
| CCCCCCCC[n+]1ccn(C)c1.F[B-](F)(F)F [1-methyl-3-octylimidazolium tetrafluoroborate] | 0.000576 ± 1.2e-05 1/K |
| CCCC[n+]1cccc(C)c1.F[B-](F)(F)F [1-butyl-3-methylpyridinium tetrafluoroborate] | 0.000576 ± 1.4e-05 1/K |
| CCCCCCn1cc[n+](C)c1.F[B-](F)(F)F [1-hexyl-3-methylimidazolium tetrafluoroborate] | 0.000576 ± 1.4e-05 1/K |
| CCn1cc[n+](C)c1.O=S(=O)([N-]S(=O)(=O)C(F)(F)F)C(F)(F)F | 0.000623 ± 1.5e-05 1/K |

Same assay, conditions: 278.15 K; 40000 kPa; Liquid; Microcalorimeter

| Structure (SMILES) | isobaric coefficient of expansion |
| --- | --- |
| CCn1cc[n+](C)c1.F[B-](F)(F)F [1-ethyl-3-methylimidazolium tetrafluoroborate] | 0.000567 ± 1.4e-05 1/K |
| CCCCCC[n+]1ccn(C)c1.O=S(=O)([N-]S(=O)(=O)C(F)(F)F)C(F)(F)F | 0.000612 ± 1.5e-05 1/K |
| CCCCCCCC[n+]1ccn(C)c1.F[B-](F)(F)F [1-methyl-3-octylimidazolium tetrafluoroborate] | 0.000572 ± 1.1e-05 1/K |
| CCCC[n+]1cccc(C)c1.F[B-](F)(F)F [1-butyl-3-methylpyridinium tetrafluoroborate] | 0.00057 ± 1.4e-05 1/K |
| CCCCCCn1cc[n+](C)c1.F[B-](F)(F)F [1-hexyl-3-methylimidazolium tetrafluoroborate] | 0.000572 ± 1.4e-05 1/K |
| CCn1cc[n+](C)c1.O=S(=O)([N-]S(=O)(=O)C(F)(F)F)C(F)(F)F | 0.000612 ± 1.5e-05 1/K |

Same assay, conditions: 278.15 K; 45000 kPa; Liquid; Microcalorimeter

| Structure (SMILES) | isobaric coefficient of expansion |
| --- | --- |
| CCn1cc[n+](C)c1.F[B-](F)(F)F [1-ethyl-3-methylimidazolium tetrafluoroborate] | 0.00056 ± 1.4e-05 1/K |
| CCCCCC[n+]1ccn(C)c1.O=S(=O)([N-]S(=O)(=O)C(F)(F)F)C(F)(F)F | 0.000602 ± 1.5e-05 1/K |
| CCCCCCCC[n+]1ccn(C)c1.F[B-](F)(F)F [1-methyl-3-octylimidazolium tetrafluoroborate] | 0.000562 ± 1.1e-05 1/K |
| CCCC[n+]1cccc(C)c1.F[B-](F)(F)F [1-butyl-3-methylpyridinium tetrafluoroborate] | 0.000566 ± 1.4e-05 1/K |
| CCCCCCn1cc[n+](C)c1.F[B-](F)(F)F [1-hexyl-3-methylimidazolium tetrafluoroborate] | 0.000562 ± 1.4e-05 1/K |
| CCn1cc[n+](C)c1.O=S(=O)([N-]S(=O)(=O)C(F)(F)F)C(F)(F)F | 0.000606 ± 1.5e-05 1/K |

Same assay, conditions: 278.15 K; 50000 kPa; Liquid; Microcalorimeter

| Structure (SMILES) | isobaric coefficient of expansion |
| --- | --- |
| CCn1cc[n+](C)c1.F[B-](F)(F)F [1-ethyl-3-methylimidazolium tetrafluoroborate] | 0.000555 ± 1.4e-05 1/K |
| CCCCCC[n+]1ccn(C)c1.O=S(=O)([N-]S(=O)(=O)C(F)(F)F)C(F)(F)F | 0.000596 ± 1.5e-05 1/K |
| CCCCCCCC[n+]1ccn(C)c1.F[B-](F)(F)F [1-methyl-3-octylimidazolium tetrafluoroborate] | 0.000558 ± 1.1e-05 1/K |
| CCCC[n+]1cccc(C)c1.F[B-](F)(F)F [1-butyl-3-methylpyridinium tetrafluoroborate] | 0.00056 ± 1.4e-05 1/K |
| CCCCCCn1cc[n+](C)c1.F[B-](F)(F)F [1-hexyl-3-methylimidazolium tetrafluoroborate] | 0.000558 ± 1.4e-05 1/K |
| CCn1cc[n+](C)c1.O=S(=O)([N-]S(=O)(=O)C(F)(F)F)C(F)(F)F | 0.0006 ± 1.5e-05 1/K |
